Results: PMC6009985, “Structure–activity relationship investigation of benzamide and picolinamide derivatives containing dimethylamine side chain as acetylcholinesterase inhibitors” (Journal of Enzyme Inhibition and Medicinal Chemistry, 2017)

Legend:
AChE [1] = molecular target: T1, AChE (Homo sapiens, UniProt P22303); test: biochemical; conditions: for IC50: Ellman method, 30 °C, 25 min, pH 8.0, mean ± SD; for Selectivity for AChE, IC50 (BChE)/IC50 (AChE): ratio IC50 (BChE)/IC50 (AChE)
Method: (§1) AChE/BChE activity assays were carried out by Ellman method with slight modification. Each compound was dissolved in Tween 80 and diluted with water to various concentrations immediately before use. The assay solution which contained 40 μL AChE/BChE, 100 μL acetylthiocholine iodide/S-butyrylthiocholine iodide, 2.76 ml Na2HPO4/NaH2PO4 buffer (pH 8.0, 0.1 M), and 100 μL tested compound solution with different concentrations were incubated at 30 °C for 25 min. Then, the reaction was terminated with 100 μL 20% sodium dodecylsulphate (SDS), then 100 μL 10 mM […] (DTNB) as chromogenic agent was added into the mixture. […] The IC50 values were calculated by Bliss method and expressed as Mean ± SD of the replicates.

BChE = BChE (Homo sapiens, UniProt P06276); test: biochemical; conditions: Ellman method, 30 °C, 25 min, pH 8.0; mean ± SD
Method: as §1

[2] = Octanol/buffer partition coefficient by shake flask method; format: physicochemical; conditions: octanol/buffer (PBS) pH 7.4, shake-flask, 37 °C, HPLC; for logP: octanol/phosphate buffer solution (PBS)
Method: The aqueous phase was replaced by phosphate buffer solution (PBS, pH = 7.4). The assay mixture containing tested compounds was shaken at 37 °C over night and then centrifuged at 2000 rpm for 20 min, followed by the analysis with HPLC. […] Experiments were conducted in triplicate and log p values were calculated.

AChE [3] = molecular target: T1, AChE; test: Kinetic study of AChE inhibition (Lineweaver-Burk); format: biochemical
Method: Kinetic characterisation of AChE/BChE was performed by a modified method previous reported. Compound 7a was pre-incubated with the enzyme at 30 °C, then 100 µL acetylthiocholine iodide including five concentrations was added into the assay mixture and kinetic characterisation was conducted spectrometrically at 412 nm. Additionally, the parallel control experiment was made without compound 7a in the mixture.
Compound 7a was selected for kinetic studies. The linear Lineweaver–Burk equation of the Michaelis–Menten was applied to evaluate the inhibition profile. The analysis of the steady-state inhibition data of compound 7a was shown in Supplement data: Table 2.

T1 sequence (P22303 32-614): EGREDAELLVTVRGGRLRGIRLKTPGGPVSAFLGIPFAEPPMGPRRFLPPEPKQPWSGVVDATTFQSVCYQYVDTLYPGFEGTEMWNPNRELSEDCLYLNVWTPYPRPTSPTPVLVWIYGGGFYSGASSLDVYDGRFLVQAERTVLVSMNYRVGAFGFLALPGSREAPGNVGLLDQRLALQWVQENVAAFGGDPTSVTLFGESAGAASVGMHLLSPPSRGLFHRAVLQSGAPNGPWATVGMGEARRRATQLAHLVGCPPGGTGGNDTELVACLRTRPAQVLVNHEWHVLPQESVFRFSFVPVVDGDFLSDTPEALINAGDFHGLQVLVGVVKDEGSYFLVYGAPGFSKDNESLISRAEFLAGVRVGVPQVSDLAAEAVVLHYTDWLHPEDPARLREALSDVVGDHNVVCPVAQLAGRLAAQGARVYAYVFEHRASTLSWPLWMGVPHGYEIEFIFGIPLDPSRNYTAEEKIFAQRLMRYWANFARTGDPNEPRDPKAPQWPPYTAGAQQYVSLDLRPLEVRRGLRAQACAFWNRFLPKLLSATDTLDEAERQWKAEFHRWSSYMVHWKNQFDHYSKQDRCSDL
Sequence of BChE (P06276 29-602): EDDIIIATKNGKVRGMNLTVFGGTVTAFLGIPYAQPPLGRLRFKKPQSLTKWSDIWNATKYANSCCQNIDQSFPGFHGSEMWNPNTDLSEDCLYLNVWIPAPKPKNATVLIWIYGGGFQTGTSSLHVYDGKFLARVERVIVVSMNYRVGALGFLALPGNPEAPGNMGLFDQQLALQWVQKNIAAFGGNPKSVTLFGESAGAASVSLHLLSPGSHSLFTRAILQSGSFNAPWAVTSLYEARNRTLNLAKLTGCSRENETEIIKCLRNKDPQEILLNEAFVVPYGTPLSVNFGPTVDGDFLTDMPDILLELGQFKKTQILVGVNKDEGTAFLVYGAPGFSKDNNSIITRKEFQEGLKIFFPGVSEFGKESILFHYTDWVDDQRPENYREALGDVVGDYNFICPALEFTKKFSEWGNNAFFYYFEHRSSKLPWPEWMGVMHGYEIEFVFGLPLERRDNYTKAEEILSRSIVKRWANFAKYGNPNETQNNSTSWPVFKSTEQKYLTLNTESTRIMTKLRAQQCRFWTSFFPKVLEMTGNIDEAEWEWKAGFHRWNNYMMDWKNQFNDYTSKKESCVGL

Structure (SMILES)	IC50 (AChE [1]) [µM]	Selectivity for AChE, IC50 (BChE)/IC50 (AChE) (AChE [1])	IC50 (BChE) [µM]	Log p [2]	logP [2]	Vmax (AChE [3]; AChE, 0.85 µM compound 7a)	Vmax (AChE [3]; AChE, 1.70 µM compound 7a)	Vmax (AChE [3]; AChE, 3.41 µM compound 7a)	non-competitive constant (Ki') (AChE [3]; AChE, Lineweaver-Burk analysis) [µM]	Ki (AChE [3]; AChE, Lineweaver-Burk analysis, read-out: competitive inhibition constant (Ki)) [µM]	type of inhibition against AChE (AChE [3]; Lineweaver-Burk analysis)
CN(C)CCOc1ccc(NC(=O)c2ccccc2)cc1 [Compound 4a]	18.2 ± 1.16	7.84	143 ± 5.56	1.12							
CN(C)CCOc1cccc(NC(=O)c2ccccc2)c1 [Compound 4b]	75.8 ± 4.13	0.276	20.9 ± 1.61		1.18						
CN(C)CCOc1ccccc1NC(=O)c1ccccc1 [Compound 4c]	> 500	<0.0359	18 ± 1		1.23						
CN(C)CCOc1ccc(NC(=O)c2ccncc2)cc1 [Compound 7a]	2.49 ± 0.19	99.4	247 ± 7.54		1.26	0.017 ΔAmin-1	0.014 ΔAmin-1	0.012 ΔAmin-1	3.28	4.69	mixed-type inhibition
CN(C)CCOc1cccc(NC(=O)c2ccncc2)c1 [Compound 7b]	38.4 ± 2.19	1.26	48.6 ± 2.23		1.31						
CN(C)CCOc1ccccc1NC(=O)c1ccncc1 [Compound 7c]	> 500	<0.0892	44.6 ± 1.16		1.37						
CN(C)CCOc1ccc(NC(=O)c2cccnc2)cc1 [Compound 7d]	5.76 ± 0.41	42.80	246.5 ± 1.85		1.33						
CN(C)CCOc1cccc(NC(=O)c2cccnc2)c1 [Compound 7e]	13.2 ± 1.73	1.67	22.1 ± 1.01		1.37						
CN(C)CCOc1ccccc1NC(=O)c1cccnc1 [Compound 7f]	75.8 ± 0.84	0.441	33.4 ± 1.37		1.42						
CN(C)CCOc1ccc(NC(=O)c2ccccn2)cc1 [Compound 7g]	4.68 ± 0.3	24.4	114 ± 7.73		1.14						
CN(C)CCOc1cccc(NC(=O)c2ccccn2)c1 [Compound 7h]	73 ± 3.03	0.492	35.9 ± 0.94		1.37						
CN(C)CCOc1ccccc1NC(=O)c1ccccn1 [Compound 7i]	> 500	<0.0549	27.4 ± 2.31		1.18						
